Test results from patent publication US5340920A, “Physiologically active porcine peptide (CNP-53)” (Matsuo; Hisayuki, priority 1990, dated 1994).

Experiments:
[1] = test system: rats; settings: administered to rats; Japanese Patent Application No. 105047/1990; cited from earlier work
[2] = test system: anti-CNP-22 antiserum (antibody #171-4); assay: RIA system using anti-CNP-22 antiserum #171-4 and I125 labelled [Tyr0] CNP-22; assay type: binding, rabbit; settings: for cross-reactivity of antibody #171-4: RIA, CNP-22 as standard
Description: Six milligrams of chemically synthesized CNP-22 and 15 mg of bovine thyroglobulin (product of Sigma Co.) were dissolved in 2 ml of 0.1M phosphate buffer (pH 7.4). To the solution, 100 μl of 5% glutaraldehyde was added and the mixture was agitated at 0° C. for 20 min to have CNP-22 bound to the thyroglobulin. Then, the solution was dialyzed five times against water (500 ml) and twice against 500 ml of 50 mM phosphate buffer (pH 7.4) containing 80 mM NaCl, whereby excess salts and reagents were removed from the reaction solution. Subsequently, 50 mM phosphate buffer containing 80 mM NaCl was added to the reaction solution to make a total volume of 12 ml. Thereafter, an equal volume of Freund's complete adjuvant was added to form an emulsion. A rabbit (New Zealand White) was repeatedly immunized with the emulsion at 20-day intervals so as to prepare an anti-CNP-22 antiserum. The thus prepared antiserum was named "#171-4".
In the first step, [Tyr°] CNP-22 [a peptide having a tyrosine residue (Tyr) added to the N-terminus of CNP-22] was chemically synthesized. Then, I^125 was introduced into the N-terminal Tyr residue by the method of Miyata et al. (Miyata, A. et al., Biochem. Biophys. Res. Commun., 129, 248-255, 1985) and the I^125 labelled monoiodo(Tyr°] CNP-22 was separated and isolated by reverse-phase HPLC.
In the next step, an RIA system was constructed by the following method using the thus I125 labelled [Tyr°] CNP-22 and the antibody (#171-4) prepared in Example 1-A.
As a buffer for the RIA system, 50 mM phosphate buffer (pH 7.4) containing 80 mM NaCl, 0.1% Triton X-100, 25 mM EDTA, 0.05% NaN3, 3.1% dextran T-40 and 0.25% BSA (as treated with N-ethylmaleimide) was used. A standard CNP-22 solution or assay sample (100 μl) and the antibody #171-4 prepared in Example 1-A (100 μl of a 60,000-fold dilution) were added to the buffer and the mixture was subjected to reaction at 4° C. for 24 h. […] Thereafter, polyethylene glycol was added and the radioactivity of the resulting precipitate was measured with a gamma-counter (ARC-600 of Aloka Co.).

[3] = test system: chick rectum; assay: Chick rectum relaxant activity (method of Currie et al.); settings: assay system of Currie et al.; compared with CNP-22
Description: The chick rectum relaxant activity of CNP-53 was measured in accordance with the method of Currie et al. (Currie et al., […]).

[4] = Diuretic and natriuretic actions of the purified peptide; assay type: in vivo; settings: no method described

CNP-22: C-type natriuretic peptide of 22 amino acid residues from porcine brain, single S-S bond, no C-terminal tail (GLSKGCFGLKLDRIGSMSGLGC)
natriuretic and hypotensive actions [1]: natriuretic and hypotensive actions

α-ANP: α-type atrial natriuretic peptide, single-stranded peptide of 28 amino acids with a single S-S bond [reference compound]
cross-reactivity of antibody #171-4 [2]: 0.015%

CNP-53: novel porcine brain peptide of 53 amino acid residues containing CNP-22 at the C-terminus, intramolecular S-S bond Cys37-Cys53 (DLRVDTKSRAAWARLLHEHPNARKYKGGNKKGLSKGCFGLKLDRIGSMSGLGC)
chick rectum relaxant activity [3]: comparable chick rectum relaxant activity to CNP-22
immunoreactivity per molecule with the anti-CNP-22 antiserum ([2]; RIA of Example 1, assuming 53 residues containing CNP-22 at the C-terminus, compared with CNP-22): comparable to that of CNP-22
diuretic and natriuretic actions [4]: diuretic and natriuretic actions

B1: pBNP-26: porcine brain natriuretic peptide of 26 amino acid residues having a single S-S bond (peptide)
peptide: HPLGGAGLASELPGIQELLDRLRDRVSELQAERTDLEPLRQDRGLTEAWEAREAAPTGVLGPRSSIFQVLRGIRSPKTMRDSGCFGRRLDRIGSLSGLGCNVLRRY
cross-reactivity of antibody #171-4 [2]: 0.46%
